The source of these data is ChEMBL document CHEMBL3868608, “Discovery of 1,3-diethyl-7-methyl-8-(phenoxymethyl)-xanthine derivatives as novel adenosine A1 and A2A receptor antagonists” (Bioorg Med Chem Lett, 2016).

The target in assay [1] is T1, Adenosine receptor A2a (Rattus norvegicus, UniProt P30543). The experiment in a line: Displacement of [3H]NECA from adenosine receptor A2A in Sprague-Dawley rat striatal membranes after 60 mins by liquid scintillation counting. Also on record: species or system Striatum, Membrane.
T1 sequence (P30543 whole entry): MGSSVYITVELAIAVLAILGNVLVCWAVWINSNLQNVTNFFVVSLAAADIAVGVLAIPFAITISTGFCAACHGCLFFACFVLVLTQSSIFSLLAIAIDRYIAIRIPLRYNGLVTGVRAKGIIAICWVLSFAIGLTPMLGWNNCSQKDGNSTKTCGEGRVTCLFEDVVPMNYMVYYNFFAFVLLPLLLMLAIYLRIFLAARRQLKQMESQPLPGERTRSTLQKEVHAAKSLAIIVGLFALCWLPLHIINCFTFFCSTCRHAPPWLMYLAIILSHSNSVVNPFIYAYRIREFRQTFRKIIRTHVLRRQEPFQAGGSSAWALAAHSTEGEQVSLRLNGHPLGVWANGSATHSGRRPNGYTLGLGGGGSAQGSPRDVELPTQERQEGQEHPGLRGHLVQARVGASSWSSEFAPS
Assay [2] deals with T2, Adenosine receptor A1 (Rattus norvegicus, UniProt P25099).
T2 sequence (P25099 whole entry): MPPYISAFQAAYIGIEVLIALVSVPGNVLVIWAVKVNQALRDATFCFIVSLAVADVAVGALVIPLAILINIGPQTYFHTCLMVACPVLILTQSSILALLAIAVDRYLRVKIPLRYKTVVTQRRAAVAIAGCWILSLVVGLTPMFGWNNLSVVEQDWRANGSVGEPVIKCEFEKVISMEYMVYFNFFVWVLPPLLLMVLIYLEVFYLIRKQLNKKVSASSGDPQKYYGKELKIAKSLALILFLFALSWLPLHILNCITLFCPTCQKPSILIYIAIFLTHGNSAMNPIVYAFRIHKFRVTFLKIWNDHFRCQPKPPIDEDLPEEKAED
The experiment in a line: Displacement of [3H]DPCPX from adenosine receptor A1 in Sprague-Dawley rat whole brain cell membranes after 60 mins by liquid scintillation counting.

Another assay relates to brain. The experiment in a line: Selectivity index, ratio of Ki for adenosine receptor A2A in Sprague-Dawley rat striatal membranes to Ki for adenosine receptor A1 in Sprague-Dawley rat whole brain cell membranes. In kind it is cell-based.
Assay [3] has as its target T1, Adenosine receptor A2a. The experiment in a line: Displacement of [3H]NECA from adenosine receptor A2A in rat striatal membranes.
Assay [4] addresses T2, Adenosine receptor A1. The experiment in a line: Displacement of [3H]DPCPX from adenosine receptor A1 in Sprague-Dawley rat whole brain membranes after 60 mins in presence of GTP by liquid scintillation counting method. Further details: species or system Membrane.

Regarding `COc1ccc(OCc2nc3c(c(=O)n(C)c(=O)n3C)n2C)cc1`, the Ki at Adenosine receptor A2a [1] is 2400 nM; at Adenosine receptor A1 [2], 4670 nM. Further, in the assay with brain, the Ratio Ki was found to be 0.5.

In the case of `Cc1ccc(OCc2nc3c(c(=O)n(C)c(=O)n3C)n2C)cc1`, the Ki on Adenosine receptor A2a [1] was 3640 nM; on Adenosine receptor A1 [2] it was 6760 nM. Moreover, the Ratio Ki in the assay on brain was determined as 0.5.

As to `CCn1c(=O)c2c(nc(COc3ccc(OC)cc3)n2C)n(CC)c1=O`, the values for the Ki at Adenosine receptor A2a [3], at Adenosine receptor A2a [1] and on Adenosine receptor A1 [2] were 237 nM, 237 nM and 1220 nM, respectively.

For the molecule `Cn1c(=O)c2c(nc(COc3ccc(Br)cc3)n2C)n(C)c1=O`, the Ki at Adenosine receptor A2a [1] was found to be 1730 nM; on Adenosine receptor A1 [2] it was 3690 nM. In the assay on brain, the Ratio Ki came to 0.5.

`CCn1c(=O)c2c(nc(COc3ccc(Cl)cc3)n2C)n(CC)c1=O`: the inhibition constant (Ki) was 1040 nM on Adenosine receptor A2a [1] and 974 nM at Adenosine receptor A1 [2]. The Ratio Ki in the assay on brain was determined as 1.1.

For the molecule `CCn1c(=O)c2c(ncn2C)n(CC)c1=O`, the inhibition constant (Ki) at Adenosine receptor A2a [1] is 2690 nM; at Adenosine receptor A1 [2], 5610 nM. Also, the Ratio Ki in the assay with brain was determined as 0.5.

In the case of `Cn1c(=O)c2c(nc(COc3ccc(F)cc3)n2C)n(C)c1=O`, the inhibitory constant (Ki) on Adenosine receptor A2a [1] stood at 2570 nM; on Adenosine receptor A1 [2], 9190 nM. Further, the Ratio Ki in the assay with brain turned out to be 0.3.

Turning to `CCn1c(=O)c2c(nc(COc3ccc(C)cc3)n2C)n(CC)c1=O`, the inhibitory constant (Ki) came to 1300 nM at Adenosine receptor A2a [1] and 1420 nM on Adenosine receptor A1 [2]. Also, the Ratio Ki with brain was determined as 0.9.

For the molecule `CCn1c(=O)c2c(nc(COc3ccc(F)cc3)n2C)n(CC)c1=O`, the figures for the Ki on Adenosine receptor A2a [1] and on Adenosine receptor A1 [2] were 841 nM and 1230 nM, respectively. In the assay on brain, the Ratio Ki is 0.7.

Take `Cn1c(=O)c2c(nc(COc3ccc(Cl)cc3)n2C)n(C)c1=O`: the inhibition constant (Ki) on Adenosine receptor A2a [1] worked out at 940 nM; at Adenosine receptor A1 [2], 5560 nM. Also, the Ratio Ki in the assay on brain is 0.2.

In the case of `CCn1c(=O)c2c(nc(COc3ccccc3)n2C)n(CC)c1=O`, the Ki on Adenosine receptor A1 [4] stood at 892 nM.

With `CCn1c(=O)c2c(nc(COc3ccc(Br)cc3)n2C)n(CC)c1=O`, the Ki turned out to be 267 nM on Adenosine receptor A1 [4], 1360 nM at Adenosine receptor A2a [1] and 264 nM on Adenosine receptor A1 [2].
